Data as given in ChEMBL document CHEMBL4706771, “Discovery of Orally Bioavailable Ligand Efficient Quinazolindiones as Potent and Selective Tankyrases Inhibitors” (ACS Med Chem Lett, 2021).
pIC50: −log10 of the molar value. Calls of active or inactive are those of the source. No cut-off for these calls is given here.

How the values were obtained:
[1] = Inhibition of Wnt/beta-catenin (unknown origin) expressed in human HEK293 cells expressing MSRII transfected with DNA-LF2K incubated for 24 hrs by luciferase reporter gene assay; settings: HEK293, 24 h
[2] = Clearance in Sprague-Dawley rat at 8.6 mg/kg, po or 0.5 mg/kg, iv; format: ADME, organism-based; settings: in vivo
[3] = Volume of distribution in Sprague-Dawley rat at 8.6 mg/kg, po or 0.5 mg/kg, iv; format: ADME, organism-based; settings: in vivo
[4] = Half life in Sprague-Dawley rat at 8.6 mg/kg, po or 0.5 mg/kg, iv; format: ADME, organism-based; settings: in vivo
[5] = Oral bioavailability in Sprague-Dawley rat at 8.6 mg/kg; format: ADME, organism-based; settings: in vivo
[6] = Clearance in C57 mouse at 3 mg/kg, po or 1 mg/kg, iv; format: ADME, organism-based; settings: in vivo
[7] = Dose normalised AUC in C57 mouse at 3 mg/kg, po; format: ADME, organism-based; settings: in vivo
[8] = Oral bioavailability in C57 mouse at 3 mg/kg; format: ADME, organism-based; settings: in vivo
[9] = Clearance in Beagle dog at 2 mg/kg, po or 1 mg/kg, iv; format: ADME, organism-based, Canis lupus familiaris; settings: in vivo
[10] = Oral bioavailability in Beagle dog at 2 mg/kg; format: ADME, organism-based, Canis lupus familiaris; settings: in vivo
Cytochrome P450 2C9 = Cytochrome P450 2C9 (Homo sapiens, UniProt P11712); assay: Inhibition of CYP2C9 (unknown origin); format: ADME
Cytochrome P450 2C19 = Cytochrome P450 2C19 (Homo sapiens, UniProt P33261); assay: Inhibition of CYP2C19 (unknown origin); format: ADME
Cytochrome P450 2D6 = Cytochrome P450 2D6 (Homo sapiens, UniProt P10635); assay: Inhibition of CYP2D6 (unknown origin); format: ADME
[11] = Mutagenicity in Salmonella typhimurium TA1535 by ames test; format: toxicity; settings: salmonella enterica subsp. enterica serovar typhimurium
[12] = Mutagenicity in Salmonella typhimurium TA98 by ames test; format: toxicity; settings: salmonella enterica subsp. enterica serovar typhimurium
NCI-H292 = assay: Antitumor activity against human NCI-H292 cells xenografted in BALB/c mouse assessed as reduction in tumor volume at 10 to 30 mg/kg, po administered for 14 days and measured on day 14; format: functional, organism-based; settings: dose 10-30 mg/kg, time 14.0 day
[13] = Toxicity in Wistar Han rat assessed as tolerability at >= 100 mg/kg, po administered for 7 days and measured on day 7; format: organism-based; settings: in vivo, 168 h, time 7 day
[14] = Toxicity in Wistar Han rat assessed as decrease in skin elasticity at >= 100 mg/kg, po administered for 7 days and measured on day 7; format: organism-based; settings: in vivo, 168 h, time 7 day
[15] = Toxicity in BALB/c mouse xenografted with human NCI-H292 cells assessed as tolerability at 10 to 30 mg/kg, po for 14 days and measured on day 14; format: organism-based; settings: in vivo, 336 h, dose 10-30 mg/kg, time 14 day

Chain of Cytochrome P450 2C19 (P33261 whole entry): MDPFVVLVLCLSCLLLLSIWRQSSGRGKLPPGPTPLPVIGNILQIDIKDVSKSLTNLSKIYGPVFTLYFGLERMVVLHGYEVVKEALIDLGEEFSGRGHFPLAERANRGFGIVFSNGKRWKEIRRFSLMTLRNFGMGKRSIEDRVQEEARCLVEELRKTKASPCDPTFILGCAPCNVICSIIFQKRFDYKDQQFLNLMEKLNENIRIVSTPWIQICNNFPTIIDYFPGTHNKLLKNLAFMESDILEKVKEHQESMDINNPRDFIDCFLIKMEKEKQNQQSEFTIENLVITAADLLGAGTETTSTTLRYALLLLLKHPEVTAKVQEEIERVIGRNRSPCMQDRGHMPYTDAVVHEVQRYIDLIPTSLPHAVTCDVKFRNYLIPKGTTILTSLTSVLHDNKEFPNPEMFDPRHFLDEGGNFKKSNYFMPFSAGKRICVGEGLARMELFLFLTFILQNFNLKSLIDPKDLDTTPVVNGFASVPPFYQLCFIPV
Chain of Cytochrome P450 2D6 (P10635 whole entry): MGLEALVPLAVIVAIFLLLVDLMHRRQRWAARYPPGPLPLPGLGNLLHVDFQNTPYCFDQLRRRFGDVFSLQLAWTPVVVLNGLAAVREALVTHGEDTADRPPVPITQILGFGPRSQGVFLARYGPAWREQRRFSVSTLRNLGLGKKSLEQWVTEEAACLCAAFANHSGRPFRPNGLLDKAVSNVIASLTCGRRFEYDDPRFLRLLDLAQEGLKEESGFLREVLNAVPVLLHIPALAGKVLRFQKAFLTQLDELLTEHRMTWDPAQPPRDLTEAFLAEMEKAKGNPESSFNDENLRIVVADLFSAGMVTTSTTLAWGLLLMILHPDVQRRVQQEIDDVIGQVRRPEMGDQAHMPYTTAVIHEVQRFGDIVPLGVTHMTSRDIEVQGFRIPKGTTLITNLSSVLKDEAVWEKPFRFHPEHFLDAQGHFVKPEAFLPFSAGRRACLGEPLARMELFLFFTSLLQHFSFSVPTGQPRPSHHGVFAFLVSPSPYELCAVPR
Chain of Cytochrome P450 2C9 (P11712 whole entry): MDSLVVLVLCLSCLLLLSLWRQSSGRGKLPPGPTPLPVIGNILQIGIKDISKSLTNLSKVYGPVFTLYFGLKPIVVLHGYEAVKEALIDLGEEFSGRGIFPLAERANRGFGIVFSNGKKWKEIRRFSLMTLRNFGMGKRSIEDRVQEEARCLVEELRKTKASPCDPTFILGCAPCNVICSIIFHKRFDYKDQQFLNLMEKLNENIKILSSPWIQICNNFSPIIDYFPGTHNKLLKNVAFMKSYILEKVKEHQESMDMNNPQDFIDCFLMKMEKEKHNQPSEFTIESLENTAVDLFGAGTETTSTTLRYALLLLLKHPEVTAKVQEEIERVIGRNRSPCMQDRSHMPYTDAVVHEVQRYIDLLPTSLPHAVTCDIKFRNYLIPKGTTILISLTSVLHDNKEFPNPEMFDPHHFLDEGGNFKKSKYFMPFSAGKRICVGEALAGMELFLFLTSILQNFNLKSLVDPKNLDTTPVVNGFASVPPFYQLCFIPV

pIC50 [1]: 7.70
clearance [2]: 3.48 mL/min/kg
Vd [3]: 0.97 L/kg
half-life [4]: 3.89 h
bioavailability [5]: 133%
clearance [6]: 1.44 mL/min/kg
AUC/dose [7]: 5831 ng·h/mL
bioavailability [8]: 37.1%
clearance [9]: 3.15 mL/min/kg
bioavailability [10]: 52.2%
pIC50 (Cytochrome P450 2C9): 4.08
pIC50 (Cytochrome P450 2C19): 4.44
pIC50 (Cytochrome P450 2D6): < 4.00
Compound: Cc1cccc2c1c(=O)n(C[C@H]1CC[C@H](C(=O)O)CC1)c(=O)n2Cc1cccc(C(F)(F)F)c1C#N
Activity [11]: Non-Toxic
Activity [12]: Non-Toxic
Activity (NCI-H292): Active
Activity [13]: Toxic
Activity [14]: Toxic
Activity [15]: Non-Toxic
